# In the supplement of paper PMC10307832:
# Columns and labels:
# Test in all cases: relative viability (nuclei count vs DMSO), 5 days (fraction); higher = more cells survive
# [1] = system: A-427
# Outline: (§1)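 Five library-drug doses in √10 steps were combined with a fixed anchor-drug dose, or a single drug was given alone, by pin tool to lung cancer cell lines in 1536-well plates the day after seeding. Nuclei were stained and counted after 5 days. Relative viability is the nuclei count in treated wells over that in vehicle wells, taken as the median of duplicate plates.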
# [2] = system: BEN
# Outline: as §1
# [3] = system: HARA
# Outline: as §1
# [4] = system: LCLC-97TM1
# Outline: as §1
# [5] = system: LOU-NH91
# Outline: as §1
# [6] = system: LU99A
# Outline: as §1
# [7] = system: LXF-289
# Outline: as §1
# [8] = system: NCI-H1395
# Outline: as §1
# [9] = system: NCI-H1563
# Outline: as §1
# [10] = system: NCI-H1666
# Outline: as §1
# [11] = system: NCI-H1755
# Outline: as §1
# [12] = system: NCI-H1793
# Outline: as §1
# [13] = system: NCI-H1915
# Outline: as §1
# [14] = system: NCI-H1944
# Outline: as §1
# [15] = system: NCI-H2023
# Outline: as §1
# [16] = system: NCI-H2126
# Outline: as §1
# [17] = system: NCI-H2170
# Outline: as §1
# [18] = system: NCI-H2342
# Outline: as §1
# [19] = system: NCI-H23
# Outline: as §1
# [20] = system: NCI-H322M
# Outline: as §1
# [21] = system: NCI-H441
# Outline: as §1
# [22] = system: NCI-H460
# Outline: as §1
# [23] = system: NCI-H650
# Outline: as §1
# [24] = system: PC-3 [JPC-3]
# Outline: as §1
# [25] = system: SK-LU-1
# Outline: as §1
structure (smiles),measurement,setting,value
CCCCCCCCCCCC1=C(O)C(=O)C=C(O)C1=O [Embelin] + COc1cccc2cc(-c3nc([C@H]4CC[C@H](C(=O)O)CC4)n4ncnc(N)c34)[nH]c12 [OSI-027] (partner 0.5 µM),relative viability,[1]; first compound 0.08 µM,0.424
same,relative viability,[1]; first compound 0.8 µM,0.495
same,relative viability,[1]; first compound 2.53 µM,0.439
same,relative viability,[1]; first compound 8 µM,0.497
same,relative viability,[2]; first compound 0.08 µM,0.287
same,relative viability,[2]; first compound 0.8 µM,0.341
same,relative viability,[2]; first compound 2.53 µM,0.338
same,relative viability,[2]; first compound 8 µM,0.289
same,relative viability,[3]; first compound 0.08 µM,0.5
same,relative viability,[3]; first compound 0.8 µM,0.701
same,relative viability,[3]; first compound 2.53 µM,0.601
same,relative viability,[3]; first compound 8 µM,0.526
same,relative viability,[4]; first compound 0.08 µM,0.376
same,relative viability,[4]; first compound 0.8 µM,0.638
same,relative viability,[4]; first compound 2.53 µM,0.494
same,relative viability,[4]; first compound 8 µM,0.589
same,relative viability,[5]; first compound 0.08 µM,0.691
same,relative viability,[5]; first compound 0.8 µM,0.851
same,relative viability,[5]; first compound 2.53 µM,0.743
same,relative viability,[5]; first compound 8 µM,0.755
same,relative viability,[6]; first compound 0.08 µM,0.323
same,relative viability,[6]; first compound 0.8 µM,0.358
same,relative viability,[6]; first compound 2.53 µM,0.27
same,relative viability,[6]; first compound 8 µM,0.282
same,relative viability,[7]; first compound 0.08 µM,0.796
same,relative viability,[7]; first compound 0.8 µM,0.952
same,relative viability,[7]; first compound 2.53 µM,0.801
same,relative viability,[7]; first compound 8 µM,0.873
same,relative viability,[8]; first compound 0.08 µM,0.657
same,relative viability,[8]; first compound 0.8 µM,0.702
same,relative viability,[8]; first compound 2.53 µM,0.615
same,relative viability,[8]; first compound 8 µM,0.549
same,relative viability,[9]; first compound 0.08 µM,0.65
same,relative viability,[9]; first compound 0.8 µM,0.772
same,relative viability,[9]; first compound 2.53 µM,0.71
same,relative viability,[9]; first compound 8 µM,0.758
same,relative viability,[10]; first compound 0.08 µM,0.798
same,relative viability,[10]; first compound 0.8 µM,0.935
same,relative viability,[10]; first compound 2.53 µM,0.871
same,relative viability,[10]; first compound 8 µM,0.865
same,relative viability,[11]; first compound 0.08 µM,0.829
same,relative viability,[11]; first compound 0.8 µM,0.709
same,relative viability,[11]; first compound 2.53 µM,0.634
same,relative viability,[11]; first compound 8 µM,0.691
same,relative viability,[12]; first compound 0.08 µM,0.281
same,relative viability,[12]; first compound 0.8 µM,0.367
same,relative viability,[12]; first compound 2.53 µM,0.237
same,relative viability,[12]; first compound 8 µM,0.243
same,relative viability,[13]; first compound 0.08 µM,0.679
same,relative viability,[13]; first compound 0.8 µM,0.707
same,relative viability,[13]; first compound 2.53 µM,0.602
same,relative viability,[13]; first compound 8 µM,0.653
same,relative viability,[14]; first compound 0.08 µM,0.41
same,relative viability,[14]; first compound 0.8 µM,0.462
same,relative viability,[14]; first compound 2.53 µM,0.358
same,relative viability,[14]; first compound 8 µM,0.425
same,relative viability,[15]; first compound 0.08 µM,0.377
same,relative viability,[15]; first compound 0.8 µM,0.468
same,relative viability,[15]; first compound 2.53 µM,0.385
same,relative viability,[15]; first compound 8 µM,0.398
same,relative viability,[16]; first compound 0.08 µM,0.666
same,relative viability,[16]; first compound 0.8 µM,0.746
same,relative viability,[16]; first compound 2.53 µM,0.804
same,relative viability,[16]; first compound 8 µM,0.795
same,relative viability,[17]; first compound 0.08 µM,0.796
same,relative viability,[17]; first compound 0.8 µM,0.733
same,relative viability,[17]; first compound 2.53 µM,0.753
same,relative viability,[17]; first compound 8 µM,0.737
same,relative viability,[18]; first compound 0.08 µM,0.666
same,relative viability,[18]; first compound 0.8 µM,0.59
same,relative viability,[18]; first compound 2.53 µM,0.676
same,relative viability,[18]; first compound 8 µM,0.68
same,relative viability,[19]; first compound 0.08 µM,0.695
same,relative viability,[19]; first compound 0.8 µM,0.672
same,relative viability,[19]; first compound 2.53 µM,0.582
same,relative viability,[19]; first compound 8 µM,0.562
same,relative viability,[20]; first compound 0.08 µM,0.523
same,relative viability,[20]; first compound 0.8 µM,0.744
same,relative viability,[20]; first compound 2.53 µM,0.645
same,relative viability,[20]; first compound 8 µM,0.512
same,relative viability,[21]; first compound 0.08 µM,0.688
same,relative viability,[21]; first compound 0.8 µM,0.742
same,relative viability,[21]; first compound 2.53 µM,0.673
same,relative viability,[21]; first compound 8 µM,0.647
same,relative viability,[22]; first compound 0.08 µM,0.683
same,relative viability,[22]; first compound 0.8 µM,0.88
same,relative viability,[22]; first compound 2.53 µM,0.958
same,relative viability,[22]; first compound 8 µM,0.751
same,relative viability,[23]; first compound 0.08 µM,0.421
same,relative viability,[23]; first compound 0.8 µM,0.623
same,relative viability,[23]; first compound 2.53 µM,0.388
same,relative viability,[23]; first compound 8 µM,0.549
same,relative viability,[24]; first compound 0.08 µM,0.759
same,relative viability,[24]; first compound 0.8 µM,0.752
same,relative viability,[24]; first compound 2.53 µM,0.829
same,relative viability,[24]; first compound 8 µM,0.867
same,relative viability,[25]; first compound 0.08 µM,0.409
same,relative viability,[25]; first compound 0.8 µM,0.373
same,relative viability,[25]; first compound 2.53 µM,0.383
same,relative viability,[25]; first compound 8 µM,0.34
